Cognitive ability data for one compound are collected here from patent US20110313164A1, “LITHIUM DERIVATIVES OF PYRROLOQUINOLINE QUINONE AND PREPARATION METHOD THEREOF” (priority 2009, published 2011).

This assay concerns APP/PSI transgenic mice. The experiment in a line: cognitive ability of APP/PSI transgenic mice (FIG. 1). It counts as in vivo. The following applies: intragastric administration, 20-week-old mice, 1.5 and 6 mg/kg of weight. The protocol:
Intragastric administration is applied to 20-week-old mice. Wiletype is a wiletype control group; Ctrl is a transgenic control group; DNP is a […] group (1.5 mg/kg of weight); PQQLi 1.5 is a lithium pyrroloquinoline-quinone salt group (1.5 mg/kg of weight); PQQLi 6 is a lithium pyrroloquinoline-quinone group (6 mg/kg of weight). *p<0.05; ** p<0.005; NS: […].

Regarding `O=C(O)c1cc(C(=O)O)c2c(n1)C(=O)C(=O)c1cc(C(=O)[O-])[nH]c1-2.[Li+]` [PQQLi, 4,5-dihydroxy-1H-pyrrole[2,3-f]chinoline-2,7,9-tricarboxylic acid, lithium salt], the cognitive ability result was “promotes the cognitive ability”.
